Reference: patent US11014934B2, “Antiseptic drug” (AO “TATKHIMFARMPREPARATY”, priority 2017, dated 2021)
Like-named read-outs stand apart in the source and are kept apart here.

Assays:
Assay in all cases: MIC, serial dilutions in Müller-Hinton broth
Format in all cases: cell-based
[1] = test system: S. aureus 1134 MRSA
Method: (§1) A comparative assessment of the spectrum of antibacterial action was carried out on archival and clinical strains of gram-positive and gram-negative microorganisms in accordance with the [Opredeleniye chuvstvitel'nosti mikroorganizmov k antibakterial'nym preparatam (Metodicheskiye ukazaniya MUK 4.2.1890-04). Utverzhdeny i vvedeny v deystviye Glavnym gosudarstvennym sanitarnym vrachom Rossiyskoy Federatsii G. G. Onishchenko 04.03.2004 g. Determination of the sensitivity of microorganisms to antibacterial drugs (Guidelines MUK 4.2.1890-04). Approved and put into effect by the Chief State Sanitary Doctor of the Russian Federation G. G. Onishchenko on 4 Mar. 2004].
(§2) The value of the minimum inhibitory concentration (MIC) was determined by the method of serial dilutions on Müller-Hinton broth using 96-well sterile plates. Two-fold dilutions of the test substances in a nutrient medium were prepared. The final concentrations were 1-128 ug/ml. The growth of cultures was assessed visually, comparing the growth of microorganisms in the presence of test compounds with the growth of culture without them. […] The first lowest concentration of the studied substance (from a series of consecutive dilutions), where bacterial growth is not visually determined, is considered to be the minimum inhibitory concentration (MIC). MIC was determined by the method of serial dilutions in broth with increment=2, so the differences of neighboring dilutions are not considered to be significant. In each experience there is a positive (broth with growing culture) and a negative (broth without growing culture) control.
(§3) To determine the MIC, 10 μl of culture medium was taken from those wells in which growth was not observed, and inoculation was performed on a dense Müller-Hinton broth. For the preparation of the inoculum, a pure, daily culture of gram-positive and gram-negative microorganisms grown on a dense nutrient medium was used. Nutrient medium is Müller-Hinton broth, which was prepared from dry media (Müller-Hinton broth, Acumedia, Baltimore), cultivation was carried out on agarized Müller-Hinton broth, including an additional 2% agar. The media were autoclaved at 121° C. for 15 minutes. In a sterile isotonic solution of sodium chloride, a suspension of microorganisms was prepared, adjusting the inoculum density to 0.5 according to the McFarland standard (1.5·10^8 CFU/ml). Then, the resulting inoculum was diluted to a concentration of 10^7 CFU/ml with Müller-Hinton broth. The inoculum was used within 15 minutes after preparation; the purity of the bacterial strains was monitored before each experiment.
(§4) 100 μl of Müller-Hinton broth was added to the wells of each plate; The tested substance was introduced into the first well at a concentration of 128 μg/ml in a volume of 100 μl and its concentration was adjusted to 0.5 μg/ml by consecutive two-fold dilution. Then, the prepared inoculum (100 μI) was added to each well, thereby diluting twice the concentration of the studied compounds. […] In addition, the purity of nutrient media and solvents was monitored. The plates were incubated in a thermostat at 37° C. for 24 hours. The growth of cultures was assessed visually, comparing the growth of microorganisms in the presence of test compounds with the growth of culture without them.
(§5) For the MIC was taken the minimum concentration of the studied compounds, providing complete suppression of the visible growth of the studied strains of microorganisms. The maximum value obtained in three independent experiments was taken as the MIC of the compound.

[2] = test system: Klebsiella spp. 12
Method: as §1, §2, §3, §4, §5

[3] = test system: Moraxella sp.829
Method: as §1, §2, §3, §4, §5

[4] = test system: Ps. aeruginosa 1202
Method: as §1, §2, §3, §4, §5

[5] = test system: S. intermedius 1061 MRSI
Method: as §1, §2, §3, §4, §5

[6] = test system: E. faecium 29
Method: as §1, §2, §3, §4, §5

[7] = test system: S. aureus 1131 MRSA
Method: as §1, §2, §3, §4, §5

[8] = test system: Kl. pneumoniae
Method: as §1, §2, §3, §4, §5

[9] = test system: B. subtilis 168
Method: as §1, §2, §3, §4, §5

[10] = test system: Proteus spp. 17
Method: as §1, §2, §3, §4, §5

[11] = test system: E. faecium 4402
Method: as §1, §2, §3, §4, §5

[12] = test system: S. aureus 967 MRSA
Method: as §1, §2, §3, §4, §5

[13] = test system: E. coli MG 1655
Method: as §1, §2, §3, §4, §5

[14] = test system: E. faecium 4403
Method: as §1, §2, §3, §4, §5

[15] = test system: Ps. aeruginosa 2869
Method: as §1, §2, §3, §4, §5

[16] = test system: S. aureus 1173 MRSA
Method: as §1, §2, §3, §4, §5

[17] = test system: E.coli ATCC 25922
Method: as §1, §2, §3, §4, §5

[18] = test system: E. faecium 24
Method: as §1, §2, §3, §4, §5

[19] = test system: S. aureus 1145 MRSA
Method: as §1, §2, §3, §4, §5

[20] = test system: M. luteus
Method: as §1, §2, §3, §4, §5

[21] = test system: E. faecium 3030
Method: as §1, §2, §3, §4, §5

[22] = test system: E. coli 1440
Method: as §1, §2, §3, §4, §5

Compound: CCCCCCCCCCCC[N+](C)(C)Cc1cnc(C[N+](C)(C)CCCCCCCCCCCC)c2c1COC(CC)O2 (stereo not drawn) [Compound I, 5,8-(Bis(methylene (N, N-dimethyl-N-dodecylammonium))-2-ethyl-4H-[1,3]dioxino [4,5-c]pyridiniumdichloride]
- MIC ([1]; Staphylococcus aureus, S. aureus 1134 MRSA, inoculum 10^7 CFU/ml, read-out: MIC): 2 µg/mL
- MIC ([2]; Klebsiella spp. 12, inoculum 10^7 CFU/ml, read-out: MIC): 16 µg/mL
- MIC ([3]; Moraxella sp.829, inoculum 10^7 CFU/ml, read-out: MIC): 4 µg/mL
- MIC ([4]; Pseudomonas aeruginosa, Ps. aeruginosa 1202, inoculum 10^7 CFU/ml, read-out: MIC): 32 µg/mL
- MIC ([5]; S. intermedius 1061 MRSI, inoculum 10^7 CFU/ml, read-out: MIC): 1 µg/mL
- MIC ([6]; Enterococcus faecium, E. faecium 29, inoculum 10^7 CFU/ml, read-out: MIC): 0.03 µg/mL
- MIC ([7]; Staphylococcus aureus, S. aureus 1131 MRSA, inoculum 10^7 CFU/ml, read-out: MIC): 2 µg/mL
- MIC ([8]; Klebsiella pneumoniae, Kl. pneumoniae, inoculum 10^7 CFU/ml, read-out: MIC): 2 µg/mL
- MIC ([9]; Bacillus subtilis, B. subtilis 168, inoculum 10^7 CFU/ml, read-out: MIC): 2 µg/mL
- MIC ([10]; Proteus spp. 17, inoculum 10^7 CFU/ml, read-out: MIC): 64 µg/mL
- MIC ([11]; Enterococcus faecium, E. faecium 4402, inoculum 10^7 CFU/ml, read-out: MIC): 0.06 µg/mL
- MIC ([12]; Staphylococcus aureus, S. aureus 967 MRSA, inoculum 10^7 CFU/ml, read-out: MIC): 16 µg/mL
- MIC ([13]; Escherichia coli, MG1655, E. coli MG 1655, inoculum 10^7 CFU/ml, read-out: MIC): 2 µg/mL
- MIC ([14]; Enterococcus faecium, E. faecium 4403, inoculum 10^7 CFU/ml, read-out: MIC): 0.03 µg/mL
- MIC ([15]; Pseudomonas aeruginosa, Ps. aeruginosa 2869, inoculum 10^7 CFU/ml, read-out: MIC): 32 µg/mL
- MIC ([16]; Staphylococcus aureus, S. aureus 1173 MRSA, inoculum 10^7 CFU/ml, read-out: MIC): 2 µg/mL
- MIC ([17]; Escherichia coli, ATCC25922, E.coli ATCC 25922, inoculum 10^7 CFU/ml, read-out: MIC): 2 µg/mL
- MIC ([18]; Enterococcus faecium, E. faecium 24, inoculum 10^7 CFU/ml, read-out: MIC): 0.03 µg/mL
- MIC ([19]; Staphylococcus aureus, S. aureus 1145 MRSA, inoculum 10^7 CFU/ml, read-out: MIC): 2 µg/mL
- MIC ([20]; Micrococcus luteus, M. luteus, inoculum 10^7 CFU/ml, read-out: MIC): 2 µg/mL
- MIC ([21]; Enterococcus faecium, E. faecium 3030, inoculum 10^7 CFU/ml, read-out: MIC): 1 µg/mL
- MIC ([22]; Escherichia coli, E. coli 1440, inoculum 10^7 CFU/ml, read-out: MIC): 32 µg/mL

Compound: CCCCCCCCCCCCCC(=O)NCCC[N+](C)(C)Cc1ccccc1.O.[Cl-] [Miramistin, benzyldimethyl [3-(myristoylamino)propyl]-ammonium chloride monohydrate]
- MIC ([1]; Staphylococcus aureus, MRSA): 8 µg/mL
- MIC ([2]; Klebsiella, SPP.12): > 64 µg/mL
- MIC ([3]; Moraxella, SP.829): 32 µg/mL
- MIC ([4]; Pseudomonas aeruginosa, 1202): > 64 µg/mL
- MIC [5]: 8 µg/mL
- MIC ([6]; Enterococcus faecium, 29): 8 µg/mL
- MIC ([7]; Staphylococcus aureus, MRSA): 4 µg/mL
- MIC ([8]; Klebsiella pneumoniae): > 64 µg/mL
- MIC ([9]; Bacillus subtilis, 168): 2 µg/mL
- MIC [10]: > 64 µg/mL
- MIC ([11]; Enterococcus faecium, 4402): 4 µg/mL
- MIC ([12]; Staphylococcus aureus, MRSA): 16 µg/mL
- MIC ([13]; Escherichia coli, MG1655): 8 µg/mL
- MIC ([14]; Enterococcus faecium, 4403): 64 µg/mL
- MIC ([15]; Pseudomonas aeruginosa, 2869): 64 µg/mL
- MIC ([16]; Staphylococcus aureus, MRSA): 16 µg/mL
- MIC ([17]; Escherichia coli, ATCC25922): 4 µg/mL
- MIC ([18]; Enterococcus faecium, 24): 16 µg/mL
- MIC ([19]; Staphylococcus aureus, MRSA): 8 µg/mL
- MIC ([20]; Micrococcus luteus): 2 µg/mL
- MIC ([21]; Enterococcus faecium, 3030): 0.5 µg/mL
- MIC ([22]; Escherichia coli, 1440): 64 µg/mL

Compound: alkyldimethyl(phenylmethyl) ammonium chloride [Benzalconium chloride]
- MIC ([1]; S. aureus 1134 MRSA, inoculum 10^7 CFU/ml): 2 µg/mL
- MIC ([2]; Klebsiella spp. 12, inoculum 10^7 CFU/ml): 2 µg/mL
- MIC ([3]; Moraxella sp.829, inoculum 10^7 CFU/ml): 32 µg/mL
- MIC ([4]; Ps. aeruginosa 1202, inoculum 10^7 CFU/ml): >64 µg/mL
- MIC ([5]; S. intermedius 1061 MRSI, inoculum 10^7 CFU/ml): 4 µg/mL
- MIC ([6]; E. faecium 29, inoculum 10^7 CFU/ml): <0.5 µg/mL
- MIC ([7]; S. aureus 1131 MRSA, inoculum 10^7 CFU/ml): 2 µg/mL
- MIC ([8]; Kl. pneumoniae, inoculum 10^7 CFU/ml): >64 µg/mL
- MIC ([9]; B. subtilis 168, inoculum 10^7 CFU/ml): 0.5 µg/mL
- MIC ([10]; Proteus spp. 17, inoculum 10^7 CFU/ml): 16 µg/mL
- MIC ([11]; E. faecium 4402, inoculum 10^7 CFU/ml): 1 µg/mL
- MIC ([12]; S. aureus 967 MRSA, inoculum 10^7 CFU/ml): 8 µg/mL
- MIC ([13]; E. coli MG 1655, inoculum 10^7 CFU/ml): 2 µg/mL
- MIC ([14]; E. faecium 4403, inoculum 10^7 CFU/ml): 2 µg/mL
- MIC ([15]; Ps. aeruginosa 2869, inoculum 10^7 CFU/ml): 64 µg/mL
- MIC ([16]; S. aureus 1173 MRSA, inoculum 10^7 CFU/ml): 8 µg/mL
- MIC ([17]; E.coli ATCC 25922, inoculum 10^7 CFU/ml): 1 µg/mL
- MIC ([18]; E. faecium 24, inoculum 10^7 CFU/ml): <0.5 µg/mL
- MIC ([19]; S. aureus 1145 MRSA, inoculum 10^7 CFU/ml): 2 µg/mL
- MIC ([20]; M. luteus, inoculum 10^7 CFU/ml): 1 µg/mL
- MIC ([21]; E. faecium 3030, inoculum 10^7 CFU/ml): 0.5 µg/mL
- MIC ([22]; E. coli 1440, inoculum 10^7 CFU/ml): 32 µg/mL
